Results on one molecule are retold here after US20080193374A1, “Liposomes Enclosing a Radionuclide and a Cytotoxic Agent for Combination Therapy” (priority 2004, published 2008).

The test system of data set [1] is OHS osteosarcoma xenografts. Put plainly: Tissue distribution of 223Ra in Caelyx liposomes, nude mice with OHS osteosarcoma xenografts (Example 2). It counts as in vivo. The procedure:
10 nude mice were prepared with OHS osteosarcoma xenografts. Each mouse was trated subcutaneously with one dose of 375 kBq/kg of 223Ra encapsulated in Caelyx lipsomes as prepared in Example 1.
After 1 hour, one day and four days, three, three and four animals were sacrificed respectively and the tissue distribution of radioactive material was measured.
The distribution of radionuclide was also compared with a control in which the radium was administered as a salt in a solution of liposomes but not encapsulated thereby.

The nature of data set [2]: Main biodistribution and blood clearance study with four days pre-treatment; liposomal vs free 223Ra (Example 4). The class given is in vivo, Balb/C mice. To be noted: i.v. As for the experimental part:
In the main study, the mice were divided into four different groups. Each group consisted of 6-7 animals of both sexes. […] One mouse in each of groups two, three and four, were left untreated and were used to measure possible reuptake of the product from faeces or the bedding.
Blood was withdrawn, the mice were euthanised and the radioactivity measurements were performed in the same manner as in Example 3, 1 hour, 24 hours, 6 days and 14 days post injection for the respective groups of mice.
To study the difference between liposomally encapsulated and free ^223Ra, a group of mice was injected intravenously with dissolved ^223RaCl.

For the molecule `[Cl][223Ra][Cl]` [free ^223Ra, ^223RaCl], the clearance from blood entry in data set [1] was “rapid clearance”. The “half-life (T1/2) circulating in the blood” value in data set [2] was “less than 1 hours”.
